Reference: US20230141603A1, “BENZODIAZEPINE DERIVATIVES AS GABA A GAMMA1 PAM” (Hoffmann-La Roche Inc., priority 2021, published 2023)

How the values were obtained:
[1] = biological target: T1, h-GABAA α2β2γ1 (Homo sapiens, UniProt P47869+Q8N1C3); assay: Two-electrode voltage clamp electrophysiology in Xenopus oocytes, modulation of GABA EC20 current; type: cell-based; design: host or cells: Xenopus laevis oocytes, RNA micro-injection; conditions: Table 2; for Efficacy (GABA)%: % modulation of GABA EC20 = 100*(Fold increase−1), compound at approx. 30-fold Ki; for Fold increase h-GABA-A α2β2γ1 oocyte @ 30-fold Ki: compound at approx. 30-fold its Ki α2β2γ1, GABA EC20, Xenopus oocytes
T1 sequence (P47869 29-451): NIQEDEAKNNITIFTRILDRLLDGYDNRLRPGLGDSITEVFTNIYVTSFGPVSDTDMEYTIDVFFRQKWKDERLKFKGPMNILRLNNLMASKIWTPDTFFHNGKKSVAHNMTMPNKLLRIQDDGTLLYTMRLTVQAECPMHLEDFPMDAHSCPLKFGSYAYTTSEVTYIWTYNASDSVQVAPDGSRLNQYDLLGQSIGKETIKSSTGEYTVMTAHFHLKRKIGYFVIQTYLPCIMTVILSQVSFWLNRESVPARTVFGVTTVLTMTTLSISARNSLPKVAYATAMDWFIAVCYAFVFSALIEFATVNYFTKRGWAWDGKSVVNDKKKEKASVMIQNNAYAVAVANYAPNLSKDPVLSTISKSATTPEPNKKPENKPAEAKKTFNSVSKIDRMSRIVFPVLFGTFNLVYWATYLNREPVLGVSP
T1 sequence (P47870 25-512 partner limits assumed): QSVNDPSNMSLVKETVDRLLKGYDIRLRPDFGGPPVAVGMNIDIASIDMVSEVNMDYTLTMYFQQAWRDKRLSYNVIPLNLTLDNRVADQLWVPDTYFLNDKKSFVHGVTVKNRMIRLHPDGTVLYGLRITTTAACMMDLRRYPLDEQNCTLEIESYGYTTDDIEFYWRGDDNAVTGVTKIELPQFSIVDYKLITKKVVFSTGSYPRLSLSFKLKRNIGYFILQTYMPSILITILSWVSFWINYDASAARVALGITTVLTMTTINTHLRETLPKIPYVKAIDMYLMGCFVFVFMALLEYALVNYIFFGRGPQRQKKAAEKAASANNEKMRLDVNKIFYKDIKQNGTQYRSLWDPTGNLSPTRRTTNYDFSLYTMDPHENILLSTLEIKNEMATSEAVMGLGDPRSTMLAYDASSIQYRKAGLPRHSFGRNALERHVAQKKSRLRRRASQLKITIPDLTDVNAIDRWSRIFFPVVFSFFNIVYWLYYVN
T1 sequence (Q8N1C3 36-465): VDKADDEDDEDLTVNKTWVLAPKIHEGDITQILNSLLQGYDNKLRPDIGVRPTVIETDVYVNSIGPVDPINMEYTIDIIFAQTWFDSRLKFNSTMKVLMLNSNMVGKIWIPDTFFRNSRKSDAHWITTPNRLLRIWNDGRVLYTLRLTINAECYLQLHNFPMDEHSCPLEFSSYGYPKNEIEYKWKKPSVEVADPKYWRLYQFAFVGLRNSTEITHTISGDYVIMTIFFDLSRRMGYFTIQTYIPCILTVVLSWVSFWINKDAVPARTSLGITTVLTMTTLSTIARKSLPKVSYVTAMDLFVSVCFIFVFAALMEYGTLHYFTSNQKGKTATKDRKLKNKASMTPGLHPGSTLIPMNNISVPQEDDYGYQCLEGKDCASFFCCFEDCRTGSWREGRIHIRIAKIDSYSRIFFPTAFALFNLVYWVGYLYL
Method in brief: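 Oocytes injected with receptor subunit mRNA were recorded 3–5 days later by two-electrode voltage clamp at −80 mV, room temperature, pH 7.4. Compound was applied during a second GABA EC20 pulse, with at least 3 oocytes per concentration. Efficacy is the ratio-trace extremum, expressed as % modulation of GABA EC20.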

[2] = biological target: T2, h-GABAA α1β3γ2 (Homo sapiens, UniProt P14867+P18507); assay: Radioligand binding assay, [3H]Flumazenil competition, HEK293F membranes; conditions: for γ2/γ1 Selectivity Ratio / LogSel: Table 1; for γ2/γ1 Selectivity Ratio: Ki α1β3γ2 (nM)/Ki α2β2γ1 (nM); for LogSel: Log[Ki α1β3γ2 (nM)/Ki α2β2γ1 (nM)]
T2 construct: expressed in transfected cells; host or cells: HEK293F cells, membranes
Method in brief: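 [3H]Flumazenil competition binding on membranes from HEK293F cells transiently expressing human α1β3γ2 receptors. Incubation to equilibrium for 1 h at 4 °C, then filtration and scintillation counting. Ki is the mean of two determinations.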

| Structure (SMILES) | Efficacy (GABA)% [1] [%] | Fold increase h-GABA-A α2β2γ1 oocyte @ 30-fold Ki [1] | Ki [2] [nM] | γ2/γ1 Selectivity Ratio [2] | LogSel [2] |
| --- | --- | --- | --- | --- | --- |
| Cc1ccc2c(c1Cl)C(c1c(F)cccc1F)=NCc1nnc(-c3cccnn3)n1-2 [Example 48, 7-chloro-6-(2,6-difluorophenyl)-8-methyl-1-pyridazin-3-yl-4H-[1,2,4]triazolo[4,3-a][1,4]benzodiazepine] | 101 | 2.01 | 952 | 114.1 | 2.06 |
| Cc1ccc2c(c1Cl)C(c1c(F)cccc1F)=NCc1nnc(-c3ccncn3)n1-2 [Example 49, 7-chloro-6-(2,6-difluorophenyl)-8-methyl-1-pyrimidin-4-yl-4H-[1,2,4]triazolo[4,3-a][1,4]benzodiazepine] | 57 | 1.57 | 1470 | 104.3 | 2.02 |
| Cc1nnc2n1-c1ccc(Br)c(Cl)c1C(c1c(F)cccc1Cl)=NC2 [Example 50, 8-bromo-7-chloro-6-(2-chloro-6-fluoro-phenyl)-1-methyl-4H-[1,2,4]triazolo[4,3-a][1,4]benzodiazepine] | 54 | 1.54 | 73.8 | 15.8 | 1.20 |
| Fc1cccnc1C1=NCc2nnc(-c3cccnn3)n2-c2ccc(Cl)c(Cl)c21 [Example 54, 7,8-dichloro-6-(3-fluoro-2-pyridyl)-1-pyridazin-3-yl-4H-[1,2,4]triazolo[4,3-a][1,4]benzodiazepine] | 602 | 7.02 | 2070 | 68.7 | 1.84 |
| Fc1cccnc1C1=NCc2nnc(-c3ccncn3)n2-c2ccc(Cl)c(Cl)c21 [Example 55, 7,8-dichloro-6-(3-fluoro-2-pyridyl)-1-pyrimidin-4-yl-4H-[1,2,4]triazolo[4,3-a][1,4]benzodiazepine] | 59 | 1.59 | 1720 | 92.9 | 1.97 |
| COc1ccc2c(c1Cl)C(c1c(F)cccc1F)=NCc1nnc(-c3cccnn3)n1-2 [Example 57, 7-chloro-6-(2,6-difluorophenyl)-8-methoxy-1-pyridazin-3-yl-4H-[1,2,4]triazolo[4,3-a][1,4]benzodiazepine] | 149 | 2.49 | 2110 | 36.5 | 1.56 |
| Cn1cc(-c2nnc3n2-c2ccc(Cl)c(Cl)c2C(c2ncccc2F)=NC3)cn1 [Example 58, 7,8-dichloro-6-(3-fluoro-2-pyridyl)-1-(1-methylpyrazol-4-yl)-4H-[1,2,4]triazolo[4,3-a][1,4]benzodiazepine] | 67 | 1.67 | 1300 | 39.4 | 1.60 |
| O=c1[nH]nc2n1-c1ccc(Cl)c(Cl)c1C(c1ncccc1F)=NC2 [Example 59, 7,8-dichloro-6-(3-fluoro-2-pyridyl)-2,4-dihydro-[1,2,4]triazolo[4,3-a][1,4]benzodiazepin-1-one] | 115 | 2.15 | 577 | 21.9 | 1.34 |
| Fc1cccnc1C1=NCc2nncn2-c2ccc(Cl)c(Cl)c21 [Example 60, 7,8-dichloro-6-(3-fluoro-2-pyridyl)-4H-[1,2,4]triazolo[4,3-a][1,4]benzodiazepine] | 132 | 2.32 | 1110 | 28.6 | 1.46 |
| COc1ccc2c(c1Cl)C(c1c(F)cccc1F)=NCc1nnc(-c3ccncn3)n1-2 [Example 61, 7-chloro-6-(2,6-difluorophenyl)-8-methoxy-1-pyrimidin-4-yl-4H-[1,2,4]triazolo[4,3-a][1,4]benzodiazepine] | 61 | 1.61 | 2140 | 27.6 | 1.44 |
| COc1ccc2c(c1Cl)C(c1c(F)cccc1F)=NCc1nnc(-c3cccnc3)n1-2 [Example 62, 7-chloro-6-(2,6-difluorophenyl)-8-methoxy-1-(3-pyridyl)-4H-[1,2,4]triazolo[4,3-a][1,4]benzodiazepine] | 63 | 1.63 | 2150 | 38.9 | 1.59 |
| Fc1cccnc1C1=NCc2nnc(C3CC3)n2-c2ccc(Cl)c(Cl)c21 [Example 65, 7,8-dichloro-1-cyclopropyl-6-(3-fluoro-2-pyridyl)-4H-[1,2,4]triazolo[4,3-a][1,4]benzodiazepine] | 114 | 2.14 | 1560 | 24.0 | 1.38 |
| Fc1cccnc1C1=NCc2nnc(-c3ccncn3)n2-c2ccc(C(F)(F)F)c(Cl)c21 [Example 69, 7-chloro-6-(3-fluoro-2-pyridyl)-1-pyrimidin-4-yl-8-(trifluoromethyl)-4H-[1,2,4]triazolo[4,3-a][1,4]benzodiazepine] | 136 | 2.36 | 10600 | 166.3 | 2.22 |
| Cn1cc(-c2nnc3n2-c2ccc(C(F)(F)F)c(Cl)c2C(c2ncccc2F)=NC3)cn1 [Example 70, 7-chloro-6-(3-fluoro-2-pyridyl)-1-(1-methylpyrazol-4-yl)-8-(trifluoromethyl)-4H-[1,2,4]triazolo[4,3-a][1,4]benzodiazepine] | 78 | 1.78 | 5980 | 144.5 | 2.16 |
| Cc1nnc2n1-c1ccc(Cl)c(Cl)c1C(c1ncccc1F)=NC2 [Example 71, 7,8-dichloro-6-(3-fluoro-2-pyridyl)-1-methyl-4H-[1,2,4]triazolo[4,3-a][1,4]benzodiazepine] | 99 | 1.99 | 1080 | 28.7 | 1.46 |
| Fc1cccnc1C1=NCc2nnc(-c3cccnn3)n2-c2ccc(C(F)(F)F)c(Cl)c21 [Example 72, 7-chloro-6-(3-fluoro-2-pyridyl)-1-pyridazin-3-yl-8-(trifluoromethyl)-4H-[1,2,4]triazolo[4,3-a][1,4]benzodiazepine] | 630 | 7.30 | 10300 | 342.1 | 2.53 |
| Fc1cccnc1C1=NCc2nnc(C3CC3)n2-c2ccc(Br)c(Cl)c21 [Example 77, 8-bromo-7-chloro-1-cyclopropyl-6-(3-fluoro-2-pyridyl)-4H-[1,2,4]triazolo[4,3-a][1,4]benzodiazepine] | 66 | 1.66 | 716 | 36.6 | 1.56 |
